In ChEMBL document CHEMBL5131484, “Design and synthesis of adamantane-1-carbonyl thiourea derivatives as potent and selective inhibitors of h-P2X4 and h-P2X7 receptors: An Emerging therapeutic tool for treatment of inflammation and neurological disorders” (Eur J Med Chem, 2022):

How the values were obtained:
[1] = Cytotoxicity against human 1321N1 cells assessed as reduction in cell viability at 50 uM incubated for 24 hrs by MTT assay relative to control; type: functional
[2] = Cytotoxicity against human HEK293 cells assessed as reduction in cell viability at 50 uM incubated for 24 hrs by MTT assay relative to control; type: toxicity, cell-based; conditions: read-out: INH
HeLa = assay: Cytotoxicity against human HeLa cells assessed as reduction in cell viability at 50 uM incubated for 24 hrs by MTT assay relative to control; type: functional
[3] = biological target: T1, P2X purinoceptor 4 (Homo sapiens) (UniProt Q99571); assay: Antagonist activity at human P2X4 receptor expressed in human 1321N1 cells assessed as reduction in intracellular Ca2+ influx incubated for 30 mins by Fura-2 AM based fluorescence assay relative to control; type: cell-based
T1 sequence (whole entry): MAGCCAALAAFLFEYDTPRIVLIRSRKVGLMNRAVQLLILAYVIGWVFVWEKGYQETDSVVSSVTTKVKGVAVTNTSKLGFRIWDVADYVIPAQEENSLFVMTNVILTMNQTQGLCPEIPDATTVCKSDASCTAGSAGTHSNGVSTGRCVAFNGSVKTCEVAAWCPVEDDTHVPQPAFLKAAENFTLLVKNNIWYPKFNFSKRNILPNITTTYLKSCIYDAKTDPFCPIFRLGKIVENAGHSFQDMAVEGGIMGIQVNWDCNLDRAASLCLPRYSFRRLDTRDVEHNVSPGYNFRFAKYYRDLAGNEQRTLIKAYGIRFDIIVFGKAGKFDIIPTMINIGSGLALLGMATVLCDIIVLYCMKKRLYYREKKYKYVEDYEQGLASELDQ

P2X purinoceptor 5 [4] = biological target: T2, P2X purinoceptor 5 (Homo sapiens, UniProt Q93086); assay: Antagonist activity at human P2X5 receptor expressed in human 1321N1 cells assessed as reduction in intracellular Ca2+ influx incubated for 30 mins by Fura-2 AM based fluorescence assay relative to control; type: cell-based
[5] = biological target: T3, P2X purinoceptor 7 (Homo sapiens) (UniProt Q99572); assay: Antagonist activity at human P2X7 receptor expressed in human 1321N1 cells assessed as reduction in intracellular Ca2+ influx incubated for 30 mins by Fura-2 AM based fluorescence assay relative to control; type: cell-based
T3 sequence (whole entry): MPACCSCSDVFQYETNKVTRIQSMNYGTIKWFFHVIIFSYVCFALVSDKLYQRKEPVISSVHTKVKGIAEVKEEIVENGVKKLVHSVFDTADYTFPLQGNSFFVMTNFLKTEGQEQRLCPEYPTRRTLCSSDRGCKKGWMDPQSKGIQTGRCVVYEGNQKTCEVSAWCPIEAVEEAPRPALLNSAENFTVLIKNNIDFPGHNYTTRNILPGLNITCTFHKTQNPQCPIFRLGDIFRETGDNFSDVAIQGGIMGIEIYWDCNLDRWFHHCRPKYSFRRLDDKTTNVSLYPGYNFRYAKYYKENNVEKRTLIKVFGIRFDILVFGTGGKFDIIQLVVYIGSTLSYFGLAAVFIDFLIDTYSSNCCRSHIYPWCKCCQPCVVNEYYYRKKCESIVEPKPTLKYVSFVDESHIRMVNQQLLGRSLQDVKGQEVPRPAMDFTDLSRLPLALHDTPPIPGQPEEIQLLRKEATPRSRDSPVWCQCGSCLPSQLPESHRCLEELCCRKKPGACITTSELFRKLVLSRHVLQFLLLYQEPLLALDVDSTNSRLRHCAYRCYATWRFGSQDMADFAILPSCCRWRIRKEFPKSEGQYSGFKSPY

P2X purinoceptor 4 = biological target: T4, P2X purinoceptor 4 (Homo sapiens, UniProt Q99571); assay: Antagonist activity at human P2X4 receptor expressed in human 1321N1 cells assessed as reduction in intracellular Ca2+ influx incubated for 30 mins by Fura-2 AM based fluorescence assay; type: cell-based
T4 sequence (Q99571 whole entry): T1 sequence (whole entry)

[6] = biological target: T5, P2X purinoceptor 2 (Homo sapiens) (UniProt Q9UBL9); assay: Antagonist activity at human P2X2 receptor expressed in human 1321N1 cells assessed as reduction in intracellular Ca2+ influx incubated for 30 mins by Fura-2 AM based fluorescence assay relative to control; type: cell-based
T5 sequence (whole entry): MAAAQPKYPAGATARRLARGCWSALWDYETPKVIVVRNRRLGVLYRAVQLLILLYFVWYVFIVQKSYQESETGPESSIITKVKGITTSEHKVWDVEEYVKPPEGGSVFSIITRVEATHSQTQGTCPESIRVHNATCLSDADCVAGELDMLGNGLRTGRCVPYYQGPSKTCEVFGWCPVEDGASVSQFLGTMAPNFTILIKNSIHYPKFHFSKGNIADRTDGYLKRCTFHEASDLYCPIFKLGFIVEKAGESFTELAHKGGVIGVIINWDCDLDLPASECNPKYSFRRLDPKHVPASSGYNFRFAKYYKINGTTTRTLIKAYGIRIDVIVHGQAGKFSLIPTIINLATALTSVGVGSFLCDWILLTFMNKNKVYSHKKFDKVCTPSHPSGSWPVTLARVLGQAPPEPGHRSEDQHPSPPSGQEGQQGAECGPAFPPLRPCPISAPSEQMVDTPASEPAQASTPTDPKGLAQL

P2X purinoceptor 5 [7] = biological target: T2, P2X purinoceptor 5; assay: Antagonist activity at human P2X5 receptor expressed in human 1321N1 cells assessed as reduction in intracellular Ca2+ influx incubated for 30 mins by Fura-2 AM based fluorescence assay; type: cell-based
[8] = biological target: T3, P2X purinoceptor 7 (Homo sapiens); assay: Antagonist activity at human P2X7 receptor expressed in human 1321N1 cells assessed as reduction in ethidium bromide dye uptake at 20 uM preincubated for 15 mins followed by BzATP addition and measured after 30 mins by Ethidium bromide dye based fluorescence plate reader analysis relative to control; type: cell-based; conditions: filed as antagonist, time 45.0 min
P2X purinoceptor 7 [9] = biological target: T6, P2X purinoceptor 7 (Homo sapiens, UniProt Q99572); assay: Antagonist activity at human P2X7 receptor expressed in human 1321N1 cells assessed as reduction in ethidium bromide dye uptake preincubated for 15 mins followed by BzATP addition and measured after 30 mins by Ethidium bromide dye based fluorescence plate reader analysis; type: cell-based
T6 sequence (Q99572 whole entry): T3 sequence (whole entry)

P2X purinoceptor 7 [10] = biological target: T6, P2X purinoceptor 7; assay: Antagonist activity at human P2X7 receptor expressed in human 1321N1 cells assessed as reduction in intracellular Ca2+ influx incubated for 30 mins by Fura-2 AM based fluorescence assay; type: cell-based

T2 sequence (Q93086 whole entry): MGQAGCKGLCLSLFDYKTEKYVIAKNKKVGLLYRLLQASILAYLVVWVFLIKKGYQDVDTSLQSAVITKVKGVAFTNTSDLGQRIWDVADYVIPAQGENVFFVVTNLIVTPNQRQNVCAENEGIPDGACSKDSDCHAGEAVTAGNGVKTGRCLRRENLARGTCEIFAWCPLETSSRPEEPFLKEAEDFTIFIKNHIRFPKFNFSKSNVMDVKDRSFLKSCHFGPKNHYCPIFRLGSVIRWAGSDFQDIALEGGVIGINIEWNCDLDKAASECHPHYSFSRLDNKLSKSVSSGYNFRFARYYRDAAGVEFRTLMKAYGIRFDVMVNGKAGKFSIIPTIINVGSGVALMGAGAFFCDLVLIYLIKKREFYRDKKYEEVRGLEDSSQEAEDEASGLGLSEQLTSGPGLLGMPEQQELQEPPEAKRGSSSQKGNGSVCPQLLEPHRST

| SMILES | inhibition [3] | inhibition (P2X purinoceptor 5 [4]) | inhibition [5] | IC50 (P2X purinoceptor 4) | inhibition ([6]; filed as antagonist) | inhibition [6] | inhibition (P2X purinoceptor 5 [4]; filed as antagonist) | IC50 (P2X purinoceptor 5 [7]) | Emax [8] | IC50 (P2X purinoceptor 7 [9]) | IC50 (P2X purinoceptor 7 [10]) | inhibition at 50 µM [1] | cytotoxicity at 24 h, 50 µM [2] | inhibition at 50 µM (HeLa) |
| --- | --- | --- | --- | --- | --- | --- | --- | --- | --- | --- | --- | --- | --- | --- |
| O=C(NC(=S)Nc1cc([N+](=O)[O-])ccc1Cl)C12CC3CC(CC(C3)C1)C2 |  | 32% |  |  |  |  |  |  |  |  |  | 10.4% | 6.31% | 8.66% |
| CN(C)CCCNC(=S)NC(=O)C12CC3CC(CC(C3)C1)C2 | 0% | 5% | 10% |  |  | 2% |  |  |  |  |  | 5.45% | 10.4% | 7.21% |
| O=C(O)C12CC3CC(CC(C3)C1)C2 | 20% | 15% | 11% |  |  | 12% |  |  |  |  |  |  |  |  |
| O=C(NC(=S)Nc1ccccc1O)C12CC3CC(CC(C3)C1)C2 |  |  |  |  |  | 33% | 41% |  |  |  |  | 10.3% | 4.22% | 8.6% |
| CC(C)c1cc(Br)c(NC(=O)Nc2cccnc2)c(Br)c1 |  |  |  |  |  |  |  |  |  |  |  | 20.2% | 2.85% | 9.12% |
| Cc1ccc(C(=O)Nc2ccc(S(=O)(=O)O)c3cc(S(=O)(=O)O)cc(S(=O)(=O)O)c23)cc1NC(=O)c1cccc(NC(=O)Nc2cccc(C(=O)Nc3cc(C(=O)Nc4ccc(S(=O)(=O)O)c5cc(S(=O)(=O)O)cc(S(=O)(=O)O)c45)ccc3C)c2)c1 [SURAMIN] |  |  |  |  |  |  |  |  |  |  |  | 30.6% | 48% | 28.7% |
| O=C(NC(=S)Nc1cccnc1Cl)C12CC3CC(CC(C3)C1)C2 |  | 25% |  |  |  | 13% |  |  | 63% | 0.155 µM |  | 11.4% | 4.95% | 5.21% |
| NS(=O)(=O)c1ccccc1NC(=S)NC(=O)C12CC3CC(CC(C3)C1)C2 |  |  |  | 4.19 µM |  | 18% | 43% |  | 58% | 0.796 µM | 0.699 µM | 12.9% | 3.77% | 9.5% |

Now from value to compound, other results behind:

| inhibition [3] | inhibition (P2X purinoceptor 5 [4]) | inhibition [5] | IC50 (P2X purinoceptor 4) | inhibition ([6]; filed as antagonist) | inhibition [6] | inhibition (P2X purinoceptor 5 [4]; filed as antagonist) | IC50 (P2X purinoceptor 5 [7]) | Emax [8] | IC50 (P2X purinoceptor 7 [9]) | IC50 (P2X purinoceptor 7 [10]) | SMILES | inhibition at 50 µM [1] | cytotoxicity at 24 h, 50 µM [2] | inhibition at 50 µM (HeLa) |
| --- | --- | --- | --- | --- | --- | --- | --- | --- | --- | --- | --- | --- | --- | --- |
| 32% | 25% | 0% |  |  |  |  |  |  |  |  | COc1ccc(NC(=S)NC(=O)C23CC4CC(CC(C4)C2)C3)cc1 | 4.56% | 10.6% | 8.01% |
|  | 16% | 11% | 8.34 µM | 41% |  |  |  |  |  |  | O=C(NC(=S)Nc1cc(Br)ccc1Br)C12CC3CC(CC(C3)C1)C2 | 7.43% | 10.7% | 4.15% |
| 36% |  | 19% |  |  | 33% | 44% |  |  |  |  | O=C(NC(=S)Nc1cccc(O)c1)C12CC3CC(CC(C3)C1)C2 | 5.67% | 6.95% | 11% |
|  |  |  |  |  |  |  | 16.5 µM |  |  |  | COc1ccc(NC(=S)NC(=O)C23CC4CC(CC(C4)C2)C3)cc1OC | 13.5% | 7.2% | 14.3% |
| 33% | 26% |  |  |  | 38% |  |  | 68% | 1.26 µM |  | O=C(NC(=S)Nc1ccc(O)cc1)C12CC3CC(CC(C3)C1)C2 | 7.21% | 3.02% | 8.66% |
|  | 20% |  | 4.53 µM |  | 5% |  |  |  |  | 4.02 µM | O=C(NC(=S)Nc1cc(Br)cc(C(F)(F)F)c1)C12CC3CC(CC(C3)C1)C2 | 5.37% | 6.85% | 11.9% |
| 35% | 16% | 18% |  |  | 22% |  |  |  |  |  | Cc1cc(Br)ccc1NC(=S)NC(=O)C12CC3CC(CC(C3)C1)C2 | 2.2% | 7.02% | 4.1% |
|  |  |  |  |  |  |  | 9.04 µM |  |  |  | Cc1ccc(NC(=S)NC(=O)C23CC4CC(CC(C4)C2)C3)c(Br)c1 | 7.29% | 9.46% | 15.4% |
| 21% |  |  |  |  | 35% | 42% |  |  |  |  | O=C(NC(=S)Nc1ccc(Br)cc1)C12CC3CC(CC(C3)C1)C2 | 5.4% | 13.7% | 7.19% |
| 38% |  | 15% |  |  |  | 45% |  |  |  |  | COc1cccc(NC(=S)NC(=O)C23CC4CC(CC(C4)C2)C3)c1 | 6.53% | 13.2% | 7.21% |
|  |  |  |  |  |  |  | 12.3 µM |  |  |  | O=C(NC(=S)Nc1cc(Cl)c(O)c(Cl)c1)C12CC3CC(CC(C3)C1)C2 | 6.18% | 1.06% | 5.4% |
